# Measurements from patent US9309242B2, “Substituted pyrido[2,3-b]pyrazines as FGFR kinase inhibitors” (priority 2011, dated 2016).
# Where two headings read alike, the source gives them in different places.
# Key:
# [1] = molecular target: Ba/F3-FGFR4-transfected cells (Homo sapiens, UniProt P22455); assay: Ba/F3-FGFR4 cellular proliferation assay, Alamar Blue; type: cell-based
# Procedure, shortened: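 Proliferation of Ba/F3-FGFR4-transfected cells is gauged by Alamar Blue (resazurin) fluorescence after 24 hours of compound treatment in phenol red free RPMI-1640 with 10% FBS.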
# [2] = test system: Ba/F3-Flt3-transfected cells; assay: Ba/F3-Flt3 (plus IL3) cellular proliferation assay, counterscreen with 10 ng/ml murine IL3; type: cell-based; conditions: read-out: BAF3_FLT3 (PLUS IL3) pIC50 (converted)
# Protocol: (§1) Ba/F3-Flt3 (Minus IL3 or Plus IL3) (Cellular Proliferation Assay)
# (§2) In a 384 well plate, 100 nl of compound dilution in DMSO was sprayed before adding 50 μl cell culture medium (phenol red free RPMI-1640, 10% FBS, 2 mM L-Glutamine and 50 μg/ml Gentamycin) containing 20000 cells per well of Ba/F3-Flt3-transfected cells. Cells were put in an incubator at 37° C. and 5% CO2. After 24 hours, 10 μl of Alamar Blue solution (0.5 mM K3Fe(CN)6, 0.5 mM K4Fe(CN)6, 0.15 mM Resazurin and 100 mM Phosphate Buffer) was added to the wells, incubated for 4 hours at 37° C. and 5% CO2 before RFU's (Relative Fluorescence Units) (ex. 540 nm., em. 590 nm.) were measured in a fluororescence plate reader.
# As a counterscreen the same experiment was performed in the presence of 10 ng/ml murine IL3.
# [3] = test system: Ba/F3-FGFR3-transfected cells; assay: Ba/F3-FGFR3 (plus IL3) cellular proliferation assay, counterscreen with 10 ng/ml murine IL3; type: cell-based; conditions: read-out: BAF3-FGFR3 (PLUS IL3) pIC50 (converted)
# Procedure, shortened: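 Ba/F3 cells transfected with FGFR3 were seeded at 20000 cells/well in phenol red-free RPMI-1640 with 10% FBS over compound in DMSO and kept 24 hours at 37° C, 5% CO2. Alamar Blue (resazurin) was then added for 4 hours and fluorescence read at ex 540/em 590 nm. The counterscreen repeated this with 10 ng/ml murine IL3.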
# [4] = molecular target: T1, Ba/F3-Flt3-transfected cells (Homo sapiens, UniProt P36888, cells depend on it, form not given); assay: Ba/F3-Flt3 (minus IL3) cellular proliferation assay, Alamar Blue; type: cell-based
# T1 construct: BAF3-FLT3 (MIN IL3) pIC50; other: minus IL3
# T1 sequence (P36888 1-993): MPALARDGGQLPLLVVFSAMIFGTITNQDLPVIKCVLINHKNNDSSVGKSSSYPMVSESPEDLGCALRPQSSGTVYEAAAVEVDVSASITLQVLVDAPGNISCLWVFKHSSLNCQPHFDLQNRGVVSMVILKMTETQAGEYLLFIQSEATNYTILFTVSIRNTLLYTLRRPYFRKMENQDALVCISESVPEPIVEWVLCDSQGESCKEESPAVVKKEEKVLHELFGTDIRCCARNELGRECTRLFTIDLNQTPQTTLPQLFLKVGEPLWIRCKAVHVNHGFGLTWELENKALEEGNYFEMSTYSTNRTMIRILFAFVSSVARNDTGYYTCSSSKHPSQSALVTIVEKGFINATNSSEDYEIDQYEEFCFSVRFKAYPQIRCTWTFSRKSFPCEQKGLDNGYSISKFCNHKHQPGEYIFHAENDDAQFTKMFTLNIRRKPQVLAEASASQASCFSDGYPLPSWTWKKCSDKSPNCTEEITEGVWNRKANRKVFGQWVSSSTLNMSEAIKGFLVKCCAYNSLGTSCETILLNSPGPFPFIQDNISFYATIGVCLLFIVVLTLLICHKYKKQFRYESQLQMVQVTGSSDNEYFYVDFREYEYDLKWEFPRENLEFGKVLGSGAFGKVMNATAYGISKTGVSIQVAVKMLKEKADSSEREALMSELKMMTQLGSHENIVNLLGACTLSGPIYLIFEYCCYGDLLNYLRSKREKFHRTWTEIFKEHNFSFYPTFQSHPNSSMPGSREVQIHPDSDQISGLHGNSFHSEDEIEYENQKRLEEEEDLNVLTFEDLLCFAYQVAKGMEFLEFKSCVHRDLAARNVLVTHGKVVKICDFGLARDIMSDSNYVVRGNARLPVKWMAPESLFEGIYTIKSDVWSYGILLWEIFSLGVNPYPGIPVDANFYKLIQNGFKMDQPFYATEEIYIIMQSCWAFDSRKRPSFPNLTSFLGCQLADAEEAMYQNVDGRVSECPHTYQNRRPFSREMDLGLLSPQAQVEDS
# Protocol: as §1
# as §2, with “reader. […]” for “reader.”
# [5] = plus IL3 (10 ng/ml murine IL3, counterscreen)
# Chain of Ba/F3-FGFR4-transfected cells (P22455 whole entry, change not shown): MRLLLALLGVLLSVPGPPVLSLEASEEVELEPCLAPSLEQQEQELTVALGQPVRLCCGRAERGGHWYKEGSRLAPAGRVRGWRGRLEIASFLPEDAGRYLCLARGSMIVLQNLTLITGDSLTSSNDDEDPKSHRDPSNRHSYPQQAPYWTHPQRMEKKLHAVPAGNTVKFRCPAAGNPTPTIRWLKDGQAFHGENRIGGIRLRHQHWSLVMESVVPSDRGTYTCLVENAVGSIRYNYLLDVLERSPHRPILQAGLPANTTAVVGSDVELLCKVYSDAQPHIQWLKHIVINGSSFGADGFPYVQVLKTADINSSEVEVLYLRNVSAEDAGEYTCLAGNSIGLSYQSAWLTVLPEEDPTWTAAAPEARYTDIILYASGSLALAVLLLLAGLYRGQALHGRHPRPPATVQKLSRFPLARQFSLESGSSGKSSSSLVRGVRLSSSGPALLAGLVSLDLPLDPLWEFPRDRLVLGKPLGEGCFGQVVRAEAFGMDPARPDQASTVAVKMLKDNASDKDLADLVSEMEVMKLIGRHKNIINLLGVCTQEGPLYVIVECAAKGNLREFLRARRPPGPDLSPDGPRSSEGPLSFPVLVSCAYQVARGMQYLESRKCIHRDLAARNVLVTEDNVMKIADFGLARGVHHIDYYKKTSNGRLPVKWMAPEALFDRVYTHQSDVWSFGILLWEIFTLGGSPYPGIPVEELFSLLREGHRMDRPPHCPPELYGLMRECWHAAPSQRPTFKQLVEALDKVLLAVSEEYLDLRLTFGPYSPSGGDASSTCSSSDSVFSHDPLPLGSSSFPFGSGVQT
Structure (SMILES),BAF3-FGFR4 pIC50 [1],"IC50 [2, 5] [µM]",melting point [°C],"IC50 [3, 5] [µM]",BAF3-FLT3 (MIN IL3) pIC50 [4],IC50 [2] [µM],IC50 [3] [µM]
"COc1cc(OC)c(F)c(N(CCCO)c2ccc3ncc(-c4cnn(C)c4)nc3n2)c1F (single isomer, unassigned) [Compound 16]",7.7,> 10,208,> 10,5.18,–,–
"COc1cc(OC)c(F)c(N(CC2COC(=O)N2)c2ccc3ncc(-c4cnn(C)c4)nc3n2)c1 (single isomer, unassigned) [Compound 111]",7.27,–,202,> 10,–,–,–
CNCCN(c1ccc2ncc(-c3cnn(C)c3)nc2n1)c1c(F)c(OC)cc(OC)c1F [Compound 3],7.37,–,159,> 10,–,–,–
COc1cc(OC)c(F)c(N(CCNC(C)C)c2ccc3ncc(-c4cnn(C)c4)nc3n2)c1F [Compound 5],~8.21,> 10,183,> 10,–,–,–
COCC(O)CN(c1cc(OC)cc(OC)c1)c1ccc2ncc(-c3cnn(C)c3)nc2n1 (stereo not shown) [Compound 7],6.53,> 10,65,> 10,<5,–,–
COc1cc(OC)c(F)c(N(Cc2ncccn2)c2ccc3ncc(-c4cnn(C)c4)nc3n2)c1 [Compound 9],6.79,–,227,–,<5,> 10,> 10
COc1cc(OC)c(F)c(N(Cc2cnccn2)c2ccc3ncc(-c4cnn(C)c4)nc3n2)c1F [Compound 10],7.57,> 10,–,> 10,5.12,–,–
COc1cc(OC)c(F)c(N(CCO)c2ccc3ncc(-c4cnn(C)c4)nc3n2)c1F [Compound 20],7.63,> 10,–,> 10,5.23,–,–
COc1cc(OC)cc(N(CC#Cc2ncccc2OC)c2ccc3ncc(-c4cnn(C)c4)nc3n2)c1 [Compound 26],<5,> 10,190,> 10,<5,–,–
Cn1cc(-c2cnc3ccc(N(Cc4ncc[nH]4)c4cc(F)cc(F)c4)nc3n2)cn1 [Compound 27],6.09,> 10,–,> 10,<5,–,–
COc1cc(OC)c(F)c(N(Cc2cn(S(=O)(=O)N(C)C)cn2)c2ccc3ncc(-c4cnn(C)c4)nc3n2)c1 [Compound 36],7.30,> 10,–,> 10,<5,–,–
COc1cc(/N=c2\ccc3ncc(-c4cnn(C)c4)nc3n2CCNC(C)C)c(F)c(OC)c1 [Compound 37],6.78,> 10,–,> 10,<5,–,–
CNCCn1/c(=N/c2cc(OC)cc(OC)c2F)ccc2ncc(-c3cnn(C)c3)nc21 [Compound 38],5.74,> 10,–,> 10,<5,–,–
CNCCN(c1ccc2ncc(-c3cnn(C)c3)nc2n1)c1cc(OC)cc(OC)c1F [Compound 39],6.73,–,–,–,<5,> 10,> 10
CNCCn1/c(=N/c2c(F)cccc2F)ccc2ncc(-c3cnn(C)c3)nc21 [Compound 44],<5,–,80,> 10,–,–,–
COc1cc(/N=c2\ccc3ncc(-c4cnn(C)c4)nc3n2CC2CCC(=O)N2)c(F)c(OC)c1 (stereo not shown) [Compound 45],6.59,–,127,> 10,–,–,–
COc1cc(OC)cc(N(CC2CCC(=O)N2)c2ccc3ncc(-c4cnn(C)c4)nc3n2)c1 (stereo not shown) [Compound 49],6.24,–,182,> 10,–,–,–
COCC(O)CN(c1ccc2ncc(-c3cnn(C)c3)nc2n1)c1c(F)c(OC)cc(OC)c1F (stereo not shown) [Compound 50],7.66,–,162 to 163,> 10,–,–,–
COCC(O)Cn1c(=Nc2c(F)c(OC)cc(OC)c2F)ccc2ncc(-c3cnn(C)c3)nc21 (stereo not shown) [Compound 51],7.77,–,180,> 10,–,–,–
COc1cc(OC)c(F)c(/N=c2\ccc3ncc(-c4cnn(C)c4)nc3n2CCCN2CCCC2=O)c1F [Compound 55],7.71,–,227,> 10,–,–,–
COc1cc(OC)cc(N(Cc2nc[nH]n2)c2ccc3ncc(-c4cnn(C)c4)nc3n2)c1 [Compound 71],7.14,–,238,–,–,–,> 10
COc1cc(O)cc(N(Cc2ncc[nH]2)c2ccc3ncc(-c4cnn(C)c4)nc3n2)c1F [Compound 95],8.03,–,218,> 9.33,–,–,–
COc1cc(OC)c(Cl)c(N(C[C@H]2CCC(=O)N2)c2ccc3ncc(-c4cnn(C)c4)nc3n2)c1Cl [Compound 97],5.95,–,150,> 10,–,–,–
COc1cc(O)cc(N(Cc2ncc[nH]2)c2ccc3ncc(-c4cnn(C)c4)nc3n2)c1 [Compound 103],~7.43,–,172,> 10,–,–,–
COc1cc(OC)cc(N(CC2CCCCO2)c2ccc3ncc(-c4cnn(C)c4)nc3n2)c1 (stereo not shown) [Compound 129],6.36,–,137,> 10,–,–,–
COc1cc(OC)c(F)c(N(CC2CCCCO2)c2ccc3ncc(-c4cnn(C)c4)nc3n2)c1 (stereo not shown) [Compound 139],6.61,–,94,> 10,–,–,–
COc1cc(OC)c(F)c(N(Cc2nn[nH]n2)c2ccc3ncc(-c4cnn(C)c4)nc3n2)c1 [Compound 140],<5,–,149,> 10,–,–,–
